The assay concerns murine embryonic stem cell clone AN3-12. Description: Etoposide treatment of mouse ES cells (LD30 dose). Format: cell-based. As to conditions: 8 day treatment, medium supplemented every day. Here is the method: A murine embryonic stem cell clone, derived from a derivative of HMSc2 termed AN3-12, with doxycycline inducible Cas9 (T3G-Cas9-IRES-mcherry PGK-GFP-rtTA) was used for this study. The following ES cell medium (ESCM) was used: 450 ml DMEM (Sigma D1152); 75 ml FCS (Invitrogen); 5.5 ml P/S (Sigma P0781); 5.5 ml NEAA (Sigma M7145); 5.5 ml LGlu (Sigma G7513); 5.5 ml NaPyr (Sigma S8636); 0.55 ml beta-mercapto ethanol (Merck 805740; dilute 10 μl bME in 2.85 ml PBS for a 1000× stock), 7.5 μl LIF (IMBA-MolBioService; 2 mg/ml). Cell culture-grade dishes were from Greiner (Greiner 15 cm 639160) and NUNC (all other formats, e.g. 10 cm dish Nunclon A Surface, cat no. 150350; 6-well Nunclon A Surface, cat no. 140675). Cells were trypsinized and replated every 2nd day and frozen in FCS:ESCM:DMSO=4.5:4.5:1. Cells were tested for mycoplasma every second week. Etoposide treatment: Medium was supplemented every day with 3.3 nM etoposide, an LD30 dose for 8 day treatment (Sigma E2600000), 1000× etoposide stocks dissolved in PBS-10% EtOH were used. For doxycycline treatment, medium was supplemented every day with 1 μg/ml (Sigma). Cells are tested for mycoplasma contamination every second week.

`COc1cc([C@@H]2c3cc4c(cc3[C@@H](O[C@@H]3O[C@@H]5CO[C@@H](C)O[C@H]5[C@H](O)[C@H]3O)[C@H]3COC(=O)[C@H]23)OCO4)cc(OC)c1O` [etoposide] had an LD30 dose of 3.3 nM.

The values above are taken from US20210189352A1, “ENHANCED REPROGRAMMING OF SOMATIC CELLS” (IMBA - INSTITUT FÜR MOLEKULARE BIOTECHNOLOGIE GMBH, priority 2017, published 2021).
